Data reported in patent US5225417A, “Opioid agonist compounds” (priority 1992, dated 1993).
Where a name gives a salt, the structure may show the parent alone. Read-outs that look alike come from different tables or passages of the source.

Tests used:
μ opioid receptor = μ opioid receptor (Rattus norvegicus, UniProt P33535); assay: Opiate Binding Assay, μ receptor (3[H]-DAMGO displacement)
δ opioid receptor = δ opioid receptor (Rattus norvegicus, UniProt P33533); assay: Opiate Binding Assay, δ receptor (3[H]-DSLET displacement); settings: for Mean IC50 μ/δ Ratio: ratio of mean IC50 values for μ and δ opioid receptors
mice = assay: PBQ Writhing Assay; type: in vivo, Charles River male albino mice; settings: for ED50: Mus musculus, 0.5 h
From the text: The Writhing Assay is one of the most widely-used experimental procedures for measuring the analgesic activity of different narcotic and nonnarcotic analgesic agents, and involves the continuous, chemically-induced pain of visceral origin to an animal, such as a mouse or rat. [Gyires et al., Arch. int. Pharmacodyn, 267, 131-140 (1984); C. Vander Wende et al., Fed. Proc., 15, 494 (1956); Koster et al. Fed. Proc. 18 412 (1959); and Witken et al., J. Pharmacol. exp. Ther., 133, 400-408 (1961).] Chemicals which may be used to induce this pain include phenylbenzoquinone (PBQ) and acetic acid. As a result of the chemical irritation to the animal, a characteristic stretching and writhing of the animal (dorsiflexion of the animal's back, extension of its hindlimbs and the strong contraction of its abdominal musculature) will generally occur. […] Drugs which reduce the number of writhes of the animal appear to restore the normal nociceptive threshold of the animal.
Charles River male albino mice, weighing 20 to 30 grams were used in this assay.
Thirty minutes after subcutaneous or intragastric administration to ten mice of either 10 mg or 30 mg per kilogram of body weight of a compound of the present invention ("test compound"), […] of body weight of a 0.025% w/v solution of PBQ was injected intraperitoneally into each mouse. Ten mice which were given saline in place of a test compound of the invention were used as a control group.
Five minutes later, each mouse was individually placed into a glass beaker for observation, and the number of writhes occurring during the following ten-minute period was counted.
A test compound was considered to be "active" in this assay (to have produced analgesia in a mouse) if, after the administration of the compound to the mouse, the number of writhes elicited by a mouse injected with PBQ was equal to, or less than, one-half the median number of writhes recorded for the saline-treated control group of mice that day, as described by Taber in "Predictive Value of Analgesic Assays in Mice and Rats," Advances in Biochemical Psychopharmacology, 8, 191 (1974).
The standard initial screening doses of a test compound employed in this assay were 10 and/or 30 […] for both routes of administration.

mice or rats = assay: Tail Flick Assay; type: in vivo
From the text: The "Tail Flick Assay" uses thermal pain of transient duration, and is a test in which the pain threshold of the mice or rats being analyzed has not been altered. It is useful for evaluating the ability of a compound or drug to increase the animal's pain threshold (i.e. prolong response latencies), rather than to restore normal thresholds.
The heat-induced response to the Tail Flick Assay is a reflex reaction mediated at the level of the spinal cord.
Opiate compounds having clinical efficacy as analgesics generally increase tail flick latencies. Thus, morphine and codeine are generally determined to be active in this test.
The Tail Flick Assay was performed generally in the manner described by G. Woolfe et al., "The Evaluation of the Analgesic Action of Pethidine Hydrochloride (Demerol)," J. Pharmacol. Exp. Ther., 80, 300, (1944), F. D'Amour et al., "A Method for Determining Loss of Pain Sensation," J. Pharmacol. Exp. Ther., 72, 74, 300-307 (1941), and E. Drower et al., "The Antinociceptive Effects of Prostaglandin Antagonists in the Rat," European Journal of Pharmacology, 133, 249-256 (1987).
Male Charles River albino mice and male Charles River Sprague-Dawley rats weighing 20 to 30 g and 200 to 250 g, respectively, was employed in this assay.
Tail flick response latencies (defined as the time that elapsed between the onset of a high intensity beam of light and the reflex removal of the mouse or rat's tail) was measured before (baseline) and again at fixed intervals after subcutaneous or intracerebro-ventricular administration of one of the compounds of the invention, or after the administration of saline (controls). The cut-off latencies established to prevent tissue damage in the animals are 12 seconds or 14 seconds in the mouse and rat, respectively, in the Tail Flick Assay. The significance of any increase in tail flick response latency is determined using analyses of variance.
One way analyses of variance were used to determine the significance of the effect of the compounds of the invention on response latencies.
"Activity" or "Inactivity" was determined at a particular concentration of the compound by a significant increase in tail flick latency above normal latencies.
The numbers in parentheses are calculated ED50 values.

[1] = rat forebrain membranes, 3[H]-DAMGO 2.0 nM, 37° C., pH 7.4
[2] = read-out: Mean IC50 Value, δ, rat forebrain membranes, 3[H]-DSLET 1.0 nM, 37° C., pH 7.4
[3] = sc, subcutaneous, mice, 30 min before PBQ, read-out: PBQ writhing assay ED50, S.C.

δ opioid receptor, sequence (P33533 whole entry): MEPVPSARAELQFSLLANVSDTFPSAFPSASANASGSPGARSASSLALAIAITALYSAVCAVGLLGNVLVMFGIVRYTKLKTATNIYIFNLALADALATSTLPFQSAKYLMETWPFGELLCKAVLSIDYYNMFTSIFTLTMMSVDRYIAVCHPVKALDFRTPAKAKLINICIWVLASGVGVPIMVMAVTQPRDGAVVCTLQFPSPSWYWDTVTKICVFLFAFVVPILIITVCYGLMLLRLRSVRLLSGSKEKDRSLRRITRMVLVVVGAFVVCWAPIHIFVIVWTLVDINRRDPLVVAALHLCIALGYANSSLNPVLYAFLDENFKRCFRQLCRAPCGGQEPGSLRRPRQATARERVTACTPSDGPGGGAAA
μ opioid receptor, sequence (P33535 whole entry): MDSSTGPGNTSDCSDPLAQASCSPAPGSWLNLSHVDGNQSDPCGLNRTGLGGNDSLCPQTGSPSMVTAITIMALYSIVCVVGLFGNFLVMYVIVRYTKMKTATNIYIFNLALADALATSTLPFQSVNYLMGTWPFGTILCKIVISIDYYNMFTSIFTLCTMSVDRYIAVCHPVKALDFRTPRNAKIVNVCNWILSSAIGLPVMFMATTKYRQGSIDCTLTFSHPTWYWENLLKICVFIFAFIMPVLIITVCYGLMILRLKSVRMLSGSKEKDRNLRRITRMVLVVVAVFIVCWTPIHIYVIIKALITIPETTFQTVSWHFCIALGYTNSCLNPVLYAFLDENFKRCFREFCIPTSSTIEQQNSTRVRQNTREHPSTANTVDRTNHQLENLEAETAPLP

Molecule | IC50 (μ opioid receptor) [µM] | IC50 (δ opioid receptor) [µM] | Mean IC50 μ/δ Ratio (δ opioid receptor) | also measured
7-(3-Furanylmethyl)-5,6,7,8,14,14bβ-hexahydro-4,8(R,α)-methano-4bS*-benzofuro[2,3-a]pyrido [4,3-b]carbazole-1,8aβ(9H)-diol, hydrochloride [Example XIV] |  |  |  | Mean IC50 Value, μ (μ opioid receptor; [1]): inactive; IC50 (δ opioid receptor; [2]): 0.0318 µM
CC(=O)Oc1ccc2c3c1O[C@H]1c4oc5ccccc5c4C[C@@]4(OC(C)=O)[C@@H](C2)N(C#N)CC[C@]314 (relative stereo) [Example I, 1,8aβ-Bis(acetyloxy)-5,6,8,8a,9,14bβ-hexahydro-4,8(R,α)-methano-4bS*-7H-bisbenzofuro [3,2-e:2',3'-g]isoquinoline-7-carbonitrile] |  |  |  | ED50 (mice; [3]): 2.4 mg/kg; PBQ writhing assay ED50, I.G. (mice; intragastric, mice, 30 min before PBQ): inactive; inhibition at 0.1 µM (δ opioid receptor; read-out: Percent Displacement, δ at 100 nM): 14%
Oc1ccc2c3c1O[C@H]1c4oc5ccccc5c4C[C@@]4(O)[C@@H](C2)NCC[C@]314 (relative stereo) [Example II, 6,7,8,14bβ-Tetrahydro-4,8(R,α)-methano-4bS*-5H-bisbenzofuro[3,2-e:2',3'-g]isoquinoline-1,8aβ(9H)-diol] | 0.291 | 0.0065 | 45 | Number of mice in 10 exhibiting inhibition of writhing, I.G. (mice; intragastric, dose not stated in table (screening doses 10 and/or 30 mpk)): 4/10; Number of mice in 10 exhibiting inhibition of writhing, S.C. (mice; subcutaneous, dose not stated in table (screening doses 10 and/or 30 mpk)): 4/10; Percent Displacement, μ (μ opioid receptor; μ receptor, 3[H]-DAMGO 2.0 nM, test concentration not given): 2
CC(C)=CCN1CC[C@]23c4c5ccc(O)c4O[C@H]2c2oc4ccccc4c2C[C@@]3(O)[C@H]1C5 (relative stereo) [Example III, 6,7,8,14bβ-tetrahydro-7-(3-methyl-2-butenyl)-4,8 (R,α)-methano-4bS*-5H-bisbenzofuro[3,2-e:2',3'-g]isoquinoline-1,aβ(9H)-diol, monohydrochloride] | 4.67 | 0.0511 | 91 | 
CCOC(=O)CN1CC[C@]23c4c5ccc(O)c4O[C@H]2c2oc4ccccc4c2C[C@@]3(O)[C@H]1C5 (relative stereo) [Example IV, Ethyl 5,6,8,8a,9,14bβ-hexahydro-1,8aβ-dihydroxy-4,8(R,α)-methano-4bS*-7H-bisbenzofuro [3,2-e:2',3'-g]isoquinoline-7-acetate, hydrochloride] | > 10 | 0.0118 | > 850 | 
CO[C@@]12Cc3c(oc4ccccc34)[C@@H]3Oc4c(O)ccc5c4[C@@]31CCN(C)[C@@H]2C5 (relative stereo) [Example IX, 6,7,8,8a,9,14b-hexahydro-8aβ-methoxy-7-methyl-4,8(R,α)-methano-4bS*-5H-bisbenzofuro [3,2-e:2',3'-g]isoquinolin-1-ol, monohydrochloride] | 0.43 | 0.001 | 430 | Tail flick activity, intracerebroventricular (mice or rats; intracerebroventricular): 10.5 nmol; active dose in tail flick, intracerebroventricularly (mice or rats; intracerebroventricular): ca. 10 nmoles; Tail flick activity, subcutaneous (active at) (mice or rats; subcutaneous): > 30 mpk
CN1CC[C@]23c4c5ccc(O)c4O[C@H]2c2[nH]c4ccc(C(=O)O)cc4c2C[C@@]3(O)[C@H]1C5 (relative stereo) [Example V, 5,6,7,8,8a,9,14,14bβ-Octahydro-1,8aβ-dihydroxy-7-methyl-4,8(R,α)-methano-4bS*-benzofuro [2,3-a]pyrido [4,3-b]carbazole-11-carboxylic acid, monohydrochloride] | 0.81 | 0.66 | 1.2 | ED50 (mice; po, intragastric, mice, 30 min before PBQ, read-out: PBQ writhing assay ED50, I.G.): 3.4 mg/kg; ED50 (mice; [3]): 1.3 mg/kg
CCOC(=O)c1ccc2[nH]c3c(c2c1)C[C@@]1(O)[C@H]2Cc4ccc(O)c5c4[C@@]1(CCN2C)[C@H]3O5 (relative stereo) [Example VI, Ethyl 5,6,7,8,8a,9,14,14bβ-Octahydro1,8αP-dihydroxy-7-methyl-4,8(R,α)methano-4bS*-benzofuro [2,3-a]pyrido[4,3-b]carbazole-11-carboxylate, monohydrochloride] |  |  | 3.8 | IC50 (μ opioid receptor; read-out: Mean IC50 Value, μ, rat forebrain membranes, 3[H]-DAMGO 2.0 nM, 37° C., pH 7.4): 0.248 µM; IC50 (δ opioid receptor; [2]): 0.065 µM
Oc1ccc2c3c1O[C@H]1c4oc5ccccc5c4C[C@@]4(O)[C@@H](C2)N(CCc2ccccc2)CC[C@]314 (relative stereo) [Example VII, 6,7,8,14bβ-tetrahydro-7-(2-phenylethyl)-4,8(R,α)-methano-4bS*-5H-bisbenzofuro [3,2-e:2',3'-g]isoquinoline-1,8aβ(9H)-diol, hydrochloride] |  | 0.0345 |  | inhibition at 1 µM (μ opioid receptor; read-out: Percent Displacement, μ at 1 μM): 35%
O=C(O)CN1CC[C@]23c4c5ccc(O)c4O[C@H]2c2oc4ccccc4c2C[C@@]3(O)[C@H]1C5 (relative stereo) [Example VIII, 5,6,8,8a,9,14bβ-Hexahydro-1,8aβ-dihydroxy-4,8 (R,α)-methano-4bS*-7H-bisbenzofuro[3,2-e:2',3'-g]isoquinoline-7-acetic acid, hydrochloride] | 4 | 0.16 | 25 | 
CN1CC[C@]23c4c5ccc(O)c4O[C@H]2c2oc4ccccc4c2C[C@@]3(OCc2ccccc2)[C@H]1C5 (relative stereo) [Example X, 6,7,8,8a,9,14bβ-hexahydro-7-methyl-8aβ-(phenylmethoxy)-4,8(R,α)-methano-4bS*-5H-bisbenzofuro[3,2-e:2',3'-g]isoquinolin-1-ol, monohydrochloride] | 0.356 | 0.008 | 44 | 
CN1CC[C@]23c4c5ccc(O)c4O[C@H]2c2[nH]c4c(I)cccc4c2C[C@@]3(O)[C@H]1C5 (relative stereo) [Example XII, 5,6,7,8,14,14bβ-Hexahydro-13-iodo-7-methyl-4,8 (R,α)-methano-4bS*-benzofuro[2,3-a]pyrido[4,3-b]carbazole-1,8aβ(9H)-diol, monohydrochloride] | 0.101 | 0.0095 | 10.6 | 
OCc1ccc(CN2CC[C@]34c5c6ccc(O)c5O[C@H]3c3oc5ccccc5c3C[C@@]4(O)[C@H]2C6)o1 (relative stereo) [Example XIII, 5,6,7,8,14,14bβ-Hexahydro-7-[[5-(hydroxymethyl)-2-furanyl]methyl]-4,8(R,α)-methano-4b S*-benzofuro[2,3-a]pyrido[4,3-b]carbazole-1,8aβ(9H)-diol, monohydrochloride] |  | ~0.1 |  | Mean IC50 Value, μ (μ opioid receptor; [1]): inactive
Oc1ccc2c3c1O[C@H]1c4oc5ccccc5c4C[C@@]4(O)[C@@H](C2)N(Cc2ccccc2)CC[C@]314 (relative stereo) [Example XVI, 6,7,8,14bβ-Tetrahydro-7-(2-phenylmethyl)-4,8 (R,α)-methano-4bS*-5H-bisbenzofuro [3,2-e:2',3'-g]isoquinoline-1,8aβ(9H)-diol] |  |  |  | Mean IC50 Value, μ (μ opioid receptor; [1]): inactive; inhibition at 0.05 µM (δ opioid receptor; read-out: Percent Displacement, δ at 50 nM): 50%
